Patent US20050164951A1, “Inhibitors for the soluble epoxide hydrolase” (The Regents of the University of California, priority 2003, published 2005)

target: T1, mouse sEH (Mus musculus, UniProt P34914); test: Inhibition of recombinant mouse sEH, IC50 assay with 4-nitrophenyl-trans-2,3-epoxy-3-phenylpropyl carbonate as substrate; assay type: biochemical; settings: Table 9; established protocols; read-out: IC50 (μM) Mouse sEH
T1 construct: made in house; host or cells: baculovirus expression system
T1 sequence (P34914 1-554): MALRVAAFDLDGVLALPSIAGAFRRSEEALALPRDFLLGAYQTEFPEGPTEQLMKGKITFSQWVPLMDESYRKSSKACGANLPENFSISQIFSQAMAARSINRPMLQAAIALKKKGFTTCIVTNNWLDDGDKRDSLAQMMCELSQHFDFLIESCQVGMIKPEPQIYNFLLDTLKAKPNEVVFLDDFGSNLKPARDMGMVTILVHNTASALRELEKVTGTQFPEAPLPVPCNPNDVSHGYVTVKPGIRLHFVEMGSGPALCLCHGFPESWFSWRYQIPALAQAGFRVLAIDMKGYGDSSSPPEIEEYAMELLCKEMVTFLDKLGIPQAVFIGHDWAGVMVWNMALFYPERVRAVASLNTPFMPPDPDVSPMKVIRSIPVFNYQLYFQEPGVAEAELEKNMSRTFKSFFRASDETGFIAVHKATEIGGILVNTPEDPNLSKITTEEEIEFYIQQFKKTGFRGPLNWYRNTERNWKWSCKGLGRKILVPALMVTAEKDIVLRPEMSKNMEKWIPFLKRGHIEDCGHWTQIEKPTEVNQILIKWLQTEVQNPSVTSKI
Description: (§1) Assays were performed in triplicate. […] The curve was generated from at least three separate runs, each in triplicate, to obtain the standard deviation (SD) given in Table 1 thru Table 4.

IC50 [µM]	Structure (SMILES)
0.05 ± 0.01	CCCCCNC(=O)C1CCCC(NC(=O)NC23CC4CC(CC(C4)C2)C3)C1 (stereo not shown) [Compound 960]
0.05 ± 0.01	CCOC(=O)CCCCCCOC1CCC(NC(=O)NC23CC4CC(CC(C4)C2)C3)CC1 (stereo not shown) [Compound 961]

same assay, conditions: Tables 17a and b; read-out: IC50 (μM) Mouse sEH

IC50 [µM]	Structure (SMILES)
0.05 ± 0.01	C#CCCCCCCNC(=O)NC12CC3CC(CC(C3)C1)C2 [Compound 900]
0.07 ± 0.01	CS(=O)(=O)NCCCCCCCCCCCCNC(=O)NC12CC3CC(CC(C3)C1)C2 [Compound 901]
0.45 ± 0.01	O=C(NCCCCCCCCCCCCN[S+]([O-])NC12CC3CC(CC(C3)C1)C2)NC12CC3CC(CC(C3)C1)C2 (stereo not shown) [Compound 902]
0.4 ± 0.01	CN(C)c1cccc2c(S(=O)(=O)NCCNC(=O)NC34CC5CC(CC(C5)C3)C4)cccc12 [Compound 907]
0.05 ± 0.01	CCCCC(CC)OCCCCCNC(=O)NC12CC3CC(CC(C3)C1)C2 (stereo not shown) [Compound 910]
4.1 ± 0.01	CC(=O)Nc1ccc(CC(=O)NC23CC4CC(CC(C4)C2)C3)cc1 [Compound 912]
0.05 ± 0.01	CC(C)=CCCC(C)CCOCCCCCNC(=O)NC12CC3CC(CC(C3)C1)C2 (stereo not shown) [Compound 915]
0.05 ± 0.01	CCOC(=O)c1ccc(COC(=O)C2CCCC(NC(=O)NC34CC5CC(CC(C5)C3)C4)C2)cc1 (stereo not shown) [Compound 942]
0.05 ± 0.01	O=C(NCCCC(=O)OCc1ccccc1)NC12CC3CC(CC(C3)C1)C2 [Compound 945]
0.08 ± 0.01	CCOC(=O)c1ccc(C(C)OC(=O)CCCNC(=O)NC23CC4CC(CC(C4)C2)C3)cc1 (stereo not shown) [Compound 948]
0.05 ± 0.01	CCOC(=O)c1ccc(C(OC(=O)CCCNC(=O)NC23CC4CC(CC(C4)C2)C3)c2ccccc2)cc1 (stereo not shown) [Compound 949]
0.05 ± 0.01	CCOC(=O)c1ccc(COCCOCCOCCCCCNC(=O)NC23CC4CC(CC(C4)C2)C3)cc1 [Compound 956]
0.05 ± 0.01	O=C(NCCCCCOCCC(F)(F)F)NC12CC3CC(CC(C3)C1)C2 [Compound 957]
0.7 ± 0.01	CCCCCOC(=O)CCCn1ccn(C23CC4CC(CC(C4)C2)C3)c1=O [Compound 958]

Structure (SMILES)	IC50 [µM]
O=C(NC12CC3CC(CC(C3)C1)C2)C(F)(F)C(F)(F)C(F)(F)C(F)(F)C(F)(F)C(F)(F)C(F)(F)C(F)(F)C(F)(F)C(F)(F)C(F)(F)F [Compound 903]	0.1 ± 0.01
CCCCC(CC)OC(=O)CCCNC(=O)NC12CC3CC(CC(C3)C1)C2 (stereo not shown) [Compound 905]	0.13 ± 0.01
CCCCCOC(=O)C1CCCC(NC(=O)NC23CC4CC(CC(C4)C2)C3)C1 (stereo not shown) [Compound 906]	0.05 ± 0.01
CCCCC(C)OC(=O)CCCNC(=O)NC12CC3CC(CC(C3)C1)C2 (stereo not shown) [Compound 943]	0.05 ± 0.01
CCCCC(C#N)OC(=O)CCCNC(=O)NC12CC3CC(CC(C3)C1)C2 (stereo not shown) [Compound 944]	0.05 ± 0.01
N#CC(OC(=O)CCCNC(=O)NC12CC3CC(CC(C3)C1)C2)c1ccccc1 (stereo not shown) [Compound 946]	0.05 ± 0.01
CCOC(=O)c1ccc(C(C#N)OC(=O)CCCNC(=O)NC23CC4CC(CC(C4)C2)C3)cc1 (stereo not shown) [Compound 947]	0.07 ± 0.01

target: T2, human sEH (Homo sapiens, UniProt P34913); test: Inhibition of recombinant human sEH, IC50 assay with 4-nitrophenyl-trans-2,3-epoxy-3-phenylpropyl carbonate as substrate; assay type: biochemical; settings: not given
T2 construct: made in house; host or cells: baculovirus expression system
T2 sequence (P34913 1-555): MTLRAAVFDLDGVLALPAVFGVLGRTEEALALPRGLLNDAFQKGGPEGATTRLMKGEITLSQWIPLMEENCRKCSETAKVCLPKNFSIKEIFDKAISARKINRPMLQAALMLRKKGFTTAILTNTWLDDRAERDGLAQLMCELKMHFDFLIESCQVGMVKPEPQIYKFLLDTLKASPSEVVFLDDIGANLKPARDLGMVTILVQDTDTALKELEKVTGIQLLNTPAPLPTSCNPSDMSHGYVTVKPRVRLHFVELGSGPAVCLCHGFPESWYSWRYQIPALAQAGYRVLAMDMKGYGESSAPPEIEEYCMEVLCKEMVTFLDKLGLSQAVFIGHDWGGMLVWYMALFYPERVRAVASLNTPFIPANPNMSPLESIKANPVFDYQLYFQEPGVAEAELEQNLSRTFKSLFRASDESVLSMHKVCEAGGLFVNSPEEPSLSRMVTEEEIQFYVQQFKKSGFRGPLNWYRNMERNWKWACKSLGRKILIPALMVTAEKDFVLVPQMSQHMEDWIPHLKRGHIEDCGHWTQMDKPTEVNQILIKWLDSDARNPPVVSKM
Description: as §1

Structure (SMILES)	IC50 [µM]
CCCCCOC(=O)C1CCCC(NC(=O)NC23CC4CC(CC(C4)C2)C3)C1 (stereo not shown) [Compound 906]	0.1 ± 0.01
CCCCC(C#N)OC(=O)CCCNC(=O)NC12CC3CC(CC(C3)C1)C2 (stereo not shown) [Compound 944]	0.2 ± 0.01

same assay, conditions: Table 9; established protocols; read-out: IC50 (μM) Human sEH

IC50 [µM]	Structure (SMILES)
0.1 ± 0.01	CCCCCNC(=O)C1CCCC(NC(=O)NC23CC4CC(CC(C4)C2)C3)C1 (stereo not shown) [Compound 960]
0.1 ± 0.01	CCOC(=O)CCCCCCOC1CCC(NC(=O)NC23CC4CC(CC(C4)C2)C3)CC1 (stereo not shown) [Compound 961]

same assay, conditions: Tables 17a and b; read-out: IC50 (μM) Human sEH

IC50 [µM]	Structure (SMILES)
0.1 ± 0.01	C#CCCCCCCNC(=O)NC12CC3CC(CC(C3)C1)C2 [Compound 900]
0.1 ± 0.01	CS(=O)(=O)NCCCCCCCCCCCCNC(=O)NC12CC3CC(CC(C3)C1)C2 [Compound 901]
0.44 ± 0.01	O=C(NCCCCCCCCCCCCN[S+]([O-])NC12CC3CC(CC(C3)C1)C2)NC12CC3CC(CC(C3)C1)C2 (stereo not shown) [Compound 902]
0.6 ± 0.01	CN(C)c1cccc2c(S(=O)(=O)NCCNC(=O)NC34CC5CC(CC(C5)C3)C4)cccc12 [Compound 907]
0.24 ± 0.01	CCCCC(CC)OCCCCCNC(=O)NC12CC3CC(CC(C3)C1)C2 (stereo not shown) [Compound 910]
35 ± 0.01	CC(=O)Nc1ccc(CC(=O)NC23CC4CC(CC(C4)C2)C3)cc1 [Compound 912]
0.12 ± 0.01	CC(C)=CCCC(C)CCOCCCCCNC(=O)NC12CC3CC(CC(C3)C1)C2 (stereo not shown) [Compound 915]
0.1 ± 0.01	CCOC(=O)c1ccc(COC(=O)C2CCCC(NC(=O)NC34CC5CC(CC(C5)C3)C4)C2)cc1 (stereo not shown) [Compound 942]
0.19 ± 0.01	O=C(NCCCC(=O)OCc1ccccc1)NC12CC3CC(CC(C3)C1)C2 [Compound 945]
0.12 ± 0.01	CCOC(=O)c1ccc(C(C)OC(=O)CCCNC(=O)NC23CC4CC(CC(C4)C2)C3)cc1 (stereo not shown) [Compound 948]
0.1 ± 0.01	CCOC(=O)c1ccc(C(OC(=O)CCCNC(=O)NC23CC4CC(CC(C4)C2)C3)c2ccccc2)cc1 (stereo not shown) [Compound 949]
0.1 ± 0.01	CCOC(=O)c1ccc(COCCOCCOCCCCCNC(=O)NC23CC4CC(CC(C4)C2)C3)cc1 [Compound 956]
0.23 ± 0.01	O=C(NCCCCCOCCC(F)(F)F)NC12CC3CC(CC(C3)C1)C2 [Compound 957]
17 ± 0.01	CCCCCOC(=O)CCCn1ccn(C23CC4CC(CC(C4)C2)C3)c1=O [Compound 958]

Structure (SMILES)	IC50 [µM]
O=C(NC12CC3CC(CC(C3)C1)C2)C(F)(F)C(F)(F)C(F)(F)C(F)(F)C(F)(F)C(F)(F)C(F)(F)C(F)(F)C(F)(F)C(F)(F)C(F)(F)F [Compound 903]	0.01 ± 0.01
CCCCC(CC)OC(=O)CCCNC(=O)NC12CC3CC(CC(C3)C1)C2 (stereo not shown) [Compound 905]	0.45 ± 0.01
CCCCC(C)OC(=O)CCCNC(=O)NC12CC3CC(CC(C3)C1)C2 (stereo not shown) [Compound 943]	0.13 ± 0.01
N#CC(OC(=O)CCCNC(=O)NC12CC3CC(CC(C3)C1)C2)c1ccccc1 (stereo not shown) [Compound 946]	0.15 ± 0.01
CCOC(=O)c1ccc(C(C#N)OC(=O)CCCNC(=O)NC23CC4CC(CC(C4)C2)C3)cc1 (stereo not shown) [Compound 947]	0.11 ± 0.01
